Measurements as given in ChEMBL document CHEMBL1201862, “PubChem BioAssay data set” (2004).
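Grown in 96-well plates, cells were treated for 48 hours with each compound at five concentrations. Insufficient inhibition: endpoint recorded as highest concentration tested. GI50 is the concentration that inhibits growth by half.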 Activity calls are given as the source filed them. Cut-off read from the data, not from the text of the source: active = GI50 up to about 1.1 µM and inactive = higher.

Tests used:
Assay in all cases: inhibition of tumour cell growth, NCI panel, 48 h
U-251 = test system: U-251
NCI-H460 = test system: NCI-H460
Malme-3M = test system: Malme-3M
UO-31 = test system: UO-31
A549 = test system: A549
HOP-62 = test system: HOP-62
DU-145 = test system: DU-145
OVCAR-8 = test system: OVCAR-8
SW-620 = test system: SW-620
RXF 393 = test system: RXF 393
EKVX = test system: EKVX
M14 = test system: M14
NCI-H226 = test system: NCI-H226
CCRF-CEM = test system: CCRF-CEM
IGROV-1 = test system: IGROV-1
A498 = test system: A498
SK-MEL-28 = test system: SK-MEL-28
SN12C = test system: SN12C
OVCAR-5 = test system: OVCAR-5
T47D = test system: T47D
Hs-578T = test system: Hs-578T
HT-29 = test system: HT-29
UACC-257 = test system: UACC-257
SK-MEL-5 = test system: SK-MEL-5
KM12 = test system: KM12
SF-268 = test system: SF-268
K562 = test system: K562
NCI/ADR-RES = test system: NCI/ADR-RES
SF-295 = test system: SF-295
PC-3 = test system: PC-3
MDA-MB-231 = test system: MDA-MB-231
NCI-H522 = test system: NCI-H522
HCC 2998 = test system: HCC 2998
786-0 = test system: 786-0
MOLT-4 = test system: MOLT-4
MDA-MB-435 = test system: MDA-MB-435
CAKI-1 = test system: CAKI-1
HL-60 = test system: HL-60
SF-539 = test system: SF-539
HOP-92 = test system: HOP-92
HCT-116 = test system: HCT-116
RPMI-8226 = test system: RPMI-8226
SNB-75 = test system: SNB-75
MCF7 = test system: MCF7
LOX IMVI = test system: LOX IMVI
MDA-N = test system: MDA-N
UACC-62 = test system: UACC-62
ACHN = test system: ACHN
HCT-15 = test system: HCT-15
NCI-H23 = test system: NCI-H23
SNB-19 = test system: SNB-19
SR = test system: SR
TK-10 = test system: TK-10
OVCAR-3 = test system: OVCAR-3

With `C=C(c1ccccc1)c1ccccc1-c1cc(-c2ccccc2)cc(-c2ccccc2)n1` the GI50 (U-251) was > 100 µM (inactive), the GI50 (NCI-H460) was > 100 µM (inactive) and the GI50 (Malme-3M) was > 100 µM (inactive). The GI50 (UO-31) was > 100 µM (inactive), the GI50 (A549) was > 100 µM (inactive) and the GI50 (HOP-62) was > 100 µM (inactive). For the same compound, the GI50 (DU-145) was > 100 µM (inactive), the GI50 (OVCAR-8) was > 100 µM (inactive) and the GI50 (SW-620) was > 100 µM (inactive). For the same compound, the GI50 (RXF 393) was > 100 µM (inactive), the GI50 (EKVX) was > 100 µM (inactive) and the GI50 (M14) was > 100 µM (inactive). The GI50 (NCI-H226) was > 100 µM (inactive), the GI50 (CCRF-CEM) was 84.9 µM (inactive) and the GI50 (IGROV-1) was > 100 µM (inactive). For the same compound, the GI50 (A498) was > 100 µM (inactive), the GI50 (SK-MEL-28) was > 100 µM (inactive) and the GI50 (SN12C) was > 100 µM (inactive). For the same compound, the GI50 (OVCAR-5) was > 100 µM (inactive), the GI50 (T47D) was 9.08 µM (inactive) and the GI50 (Hs-578T) was > 100 µM (inactive). The GI50 (HT-29) was 99.5 µM (inactive), the GI50 (UACC-257) was > 100 µM (inactive) and the GI50 (SK-MEL-5) was 78.3 µM (inactive). The GI50 (KM12) was > 100 µM (inactive), the GI50 (SF-268) was > 100 µM (inactive) and the GI50 (K562) was 53.6 µM (inactive). The GI50 (NCI/ADR-RES) was > 100 µM (inactive), the GI50 (SF-295) was > 100 µM (inactive) and the GI50 (PC-3) was > 100 µM (inactive). For the same compound, the GI50 (MDA-MB-231) was > 100 µM (inactive), the GI50 (NCI-H522) was 28.4 µM (inactive) and the GI50 (HCC 2998) was 98.6 µM (inactive). The GI50 (786-0) was > 100 µM (inactive), the GI50 (MOLT-4) was > 100 µM (inactive) and the GI50 (MDA-MB-435) was 82.2 µM (inactive). For the same compound, the GI50 (CAKI-1) was > 100 µM (inactive), the GI50 (HL-60) was 34.5 µM (inactive) and the GI50 (SF-539) was > 100 µM (inactive). The GI50 (HOP-92) was > 100 µM (inactive), the GI50 (HCT-116) was 65.8 µM (inactive) and the GI50 (RPMI-8226) was 58.1 µM (inactive). For the same compound, the GI50 (SNB-75) was > 100 µM (inactive), the GI50 (MCF7) was > 100 µM (inactive) and the GI50 (LOX IMVI) was > 100 µM (inactive). The GI50 (MDA-N) was > 100 µM (inactive), the GI50 (UACC-62) was 74.6 µM (inactive) and the GI50 (ACHN) was > 100 µM (inactive). For the same compound, the GI50 (HCT-15) was over 100 µM, the GI50 (NCI-H23) was > 100 µM (inactive) and the GI50 (SNB-19) was > 100 µM (inactive). For the same compound, the GI50 (SR) was > 100 µM (inactive), the GI50 (TK-10) was > 100 µM (inactive) and the GI50 (OVCAR-3) was 76.6 µM (inactive).
